According to PubChem BioAssay (NCI):
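Step 1: Grow cells in 96-well plates. Step 2: Expose to compound for 48 hours at 5 concentrations. Step 3: Interpolate endpoints linearly; if unreached, use highest concentration. GI50 is the concentration that inhibits growth by half. TGI: concentration producing complete growth inhibition.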

Tests used:
Assay in all cases: DTP human tumour cell line panel, 48 h
[1] = test system: 786-0 renal
[2] = test system: A498 renal
[3] = test system: A549 NSCLC
[4] = test system: ACHN renal
[5] = test system: BT-549 breast
[6] = test system: CAKI-1 renal
[7] = test system: CCRF-CEM leukemia
[8] = test system: COLO 205 colon
[9] = test system: DU-145 prostate
[10] = test system: HCC-2998 colon
[11] = test system: HCT-116 colon
[12] = test system: HCT-15 colon
[13] = test system: HL-60(TB) leukemia
[14] = test system: HOP-62 NSCLC
[15] = test system: HOP-92 NSCLC
[16] = test system: HS 578T breast
[17] = test system: HT29 colon
[18] = test system: IGROV1 ovarian
[19] = test system: K-562 leukemia
[20] = test system: KM12 colon
[21] = test system: LOX IMVI melanoma
[22] = test system: M14 melanoma
[23] = test system: MALME-3M melanoma
[24] = test system: MCF7 breast
[25] = test system: MDA-MB-231 breast
[26] = test system: MDA-MB-435
[27] = test system: MOLT-4 leukemia
[28] = test system: NCI-H226 lung
[29] = test system: NCI-H23 lung
[30] = test system: NCI-H460 lung
[31] = test system: NCI-H522 lung
[32] = test system: NCI/ADR-RES ovarian
[33] = test system: OVCAR-3 ovarian
[34] = test system: OVCAR-4 ovarian
[35] = test system: OVCAR-5 ovarian
[36] = test system: OVCAR-8 ovarian
[37] = test system: RPMI-8226 leukemia
[38] = test system: RXF 393 renal
[39] = test system: SF-268 CNS
[40] = test system: SF-295 CNS
[41] = test system: SF-539 CNS
[42] = test system: SK-MEL-28 melanoma
[43] = test system: SK-MEL-5 melanoma
[44] = test system: SK-OV-3 ovarian
[45] = test system: SN12C renal
[46] = test system: SNB-19 CNS
[47] = test system: SNB-75 CNS
[48] = test system: SR leukemia
[49] = test system: SW-620 colon
[50] = test system: T-47D breast
[51] = test system: TK-10 renal
[52] = test system: U251 CNS
[53] = test system: UACC-257 melanoma
[54] = test system: UACC-62 melanoma
[55] = test system: UO-31 renal
[56] = test system: PC-3 prostate
[57] = test system: SK-MEL-2 melanoma

O=[n+]1c2ccccc2n([O-])c2cc(Cl)ccc21
GI50 [1]: 3.12 µM | TGI [1]: 13.4 µM | GI50 [2]: 1.14 µM | TGI [2]: 14.7 µM | GI50 [3]: 3.17 µM | TGI [3]: 22.9 µM | GI50 [4]: 2.91 µM | TGI [4]: 9.95 µM | GI50 [5]: 5.2 µM | TGI [5]: 24.1 µM | GI50 [6]: 3.28 µM | TGI [6]: 13.1 µM | GI50 [7]: 0.533 µM | TGI [7]: 5 µM | GI50 [8]: 4.65 µM | TGI [8]: 18.2 µM | GI50 [9]: 11.3 µM | TGI [9]: 24.1 µM | GI50 [10]: 6.81 µM | TGI [10]: 20.5 µM | GI50 [11]: 3.37 µM | TGI [11]: 12.7 µM | GI50 [12]: 2.55 µM | TGI [12]: 8.59 µM | GI50 [13]: 2.07 µM | TGI [13]: 4.47 µM | GI50 [14]: 3.15 µM | TGI [14]: 10.9 µM | GI50 [15]: 2.14 µM | TGI [15]: 8.29 µM | GI50 [16]: 2.95 µM | TGI [16]: 21.7 µM | GI50 [17]: 3.6 µM | TGI [17]: 13.5 µM | GI50 [18]: 1.86 µM | TGI [18]: 6.95 µM | GI50 [19]: 3.02 µM | TGI [19]: 12.8 µM | GI50 [20]: 5.77 µM | TGI [20]: 18.4 µM | GI50 [21]: 2.83 µM | TGI [21]: 11.9 µM | GI50 [22]: 10.7 µM | TGI [22]: 29.9 µM | GI50 [23]: 7.76 µM | TGI [23]: 20.8 µM | GI50 [24]: 3.72 µM | TGI [24]: 16.1 µM | GI50 [25]: 4.21 µM | TGI [25]: 22.2 µM | GI50 [26]: 11.3 µM | TGI [26]: 23.7 µM | GI50 [27]: 0.385 µM | TGI [27]: 2.03 µM | GI50 [28]: 7.32 µM | TGI [28]: 25.6 µM | GI50 [29]: 4 µM | TGI [29]: 25 µM | GI50 [30]: 2.05 µM | TGI [30]: 14.7 µM | GI50 [31]: 1.47 µM | TGI [31]: 3.11 µM | GI50 [32]: 4.31 µM | TGI [32]: 40.3 µM | GI50 [33]: 3.48 µM | TGI [33]: 12.3 µM | GI50 [34]: 2.67 µM | TGI [34]: 26.6 µM | GI50 [35]: 15.7 µM | TGI [35]: 33.5 µM | GI50 [36]: 3.5 µM | TGI [36]: 15.4 µM | GI50 [37]: 2.45 µM | TGI [37]: 5.98 µM | GI50 [38]: 3.03 µM | TGI [38]: 10 µM | GI50 [39]: 2.99 µM | TGI [39]: 10.7 µM | GI50 [40]: 4.32 µM | TGI [40]: 20.9 µM | GI50 [41]: 3.5 µM | TGI [41]: 11.2 µM | GI50 [42]: 16.4 µM | TGI [42]: 97.4 µM | GI50 [43]: 9.11 µM | TGI [43]: 21.6 µM | GI50 [44]: 7.12 µM | TGI [44]: 20.4 µM | GI50 [45]: 3.52 µM | TGI [45]: 14.1 µM | GI50 [46]: 9.46 µM | TGI [46]: 39.5 µM | GI50 [47]: 3.18 µM | TGI [47]: 15 µM | GI50 [48]: 2.19 µM | TGI [48]: 7.53 µM | GI50 [49]: 3.73 µM | TGI [49]: 18.7 µM | GI50 [50]: 1.96 µM | TGI [50]: 11.7 µM | GI50 [51]: 4.96 µM | TGI [51]: 18 µM | GI50 [52]: 2.71 µM | TGI [52]: 12 µM | GI50 [53]: 5.49 µM | TGI [53]: 18.1 µM | GI50 [54]: 6.17 µM | TGI [54]: 23.8 µM | GI50 [55]: 3.52 µM | TGI [55]: 15 µM

COc1cc(-c2cc(/C=C/C(=O)c3ccc(Cl)c(Cl)c3)[nH]n2)cc(OC)c1OC
GI50 [1]: 10.1 µM | TGI [1]: 68 µM | GI50 [2]: 5.89 µM | TGI [2]: 43 µM | GI50 [3]: 18.7 µM | TGI [3]: > 100 µM | GI50 [4]: 21.4 µM | TGI [4]: > 100 µM | GI50 [5]: 8.4 µM | TGI [5]: 29.2 µM | GI50 [6]: 16.9 µM | TGI [6]: > 100 µM | GI50 [7]: 2.15 µM | TGI [7]: 23.5 µM | GI50 [8]: 1.26 µM | TGI [8]: 15.8 µM | GI50 [10]: 9.56 µM | TGI [10]: 31.4 µM | GI50 [11]: 2.95 µM | TGI [11]: 21.5 µM | GI50 [12]: 4.29 µM | GI50 [13]: 7.18 µM | TGI [13]: 36.7 µM | GI50 [14]: 1.72 µM | TGI [14]: 7.66 µM | GI50 [15]: 2.53 µM | TGI [15]: 8.25 µM | GI50 [16]: 16.6 µM | TGI [16]: > 100 µM | GI50 [17]: 11.5 µM | TGI [17]: > 100 µM | GI50 [18]: 24 µM | TGI [18]: > 100 µM | GI50 [19]: 4.96 µM | TGI [19]: 64.4 µM | GI50 [20]: 3.37 µM | TGI [20]: > 100 µM | GI50 [21]: 3.39 µM | TGI [21]: 16.4 µM | GI50 [22]: 18.2 µM | TGI [22]: > 100 µM | GI50 [23]: 29.2 µM | TGI [23]: > 100 µM | GI50 [24]: 1.8 µM | TGI [24]: > 100 µM | GI50 [25]: 8.65 µM | TGI [25]: > 100 µM | GI50 [26]: 5.65 µM | TGI [26]: > 100 µM | GI50 [27]: 4.38 µM | TGI [27]: 40.6 µM | GI50 [28]: 18.6 µM | TGI [28]: > 100 µM | GI50 [29]: 23.4 µM | TGI [29]: > 100 µM | GI50 [30]: 4.91 µM | TGI [30]: 36.6 µM | GI50 [31]: 1.33 µM | TGI [31]: 3.04 µM | GI50 [32]: 10.6 µM | TGI [32]: > 100 µM | GI50 [33]: 6.99 µM | TGI [33]: 37.8 µM | GI50 [34]: 10.8 µM | TGI [34]: 50.9 µM | GI50 [35]: 20.5 µM | TGI [35]: > 100 µM | GI50 [36]: 6.3 µM | TGI [36]: 34 µM | GI50 [56]: 5.96 µM | TGI [56]: > 100 µM | GI50 [37]: 0.538 µM | TGI [37]: 6.73 µM | GI50 [38]: 2.7 µM | TGI [38]: 12.8 µM | GI50 [39]: 13.7 µM | TGI [39]: 63.3 µM | GI50 [41]: 4.31 µM | TGI [41]: 18.7 µM | GI50 [57]: 13.9 µM | TGI [57]: 34.1 µM | GI50 [42]: 18.1 µM | TGI [42]: 66 µM | GI50 [43]: 13.4 µM | TGI [43]: 46.9 µM | GI50 [44]: 4.19 µM | TGI [44]: 18.8 µM | GI50 [45]: 13.7 µM | TGI [45]: > 100 µM | GI50 [46]: 9.83 µM | TGI [46]: > 100 µM | GI50 [48]: 0.393 µM | TGI [48]: 13.5 µM | GI50 [49]: 8.63 µM | TGI [49]: 79.6 µM | GI50 [50]: 1.66 µM | TGI [50]: 15.7 µM | GI50 [51]: 8.34 µM | TGI [51]: 43.2 µM | GI50 [52]: 8.7 µM | TGI [52]: 80.5 µM | GI50 [53]: 16.3 µM | TGI [53]: 74 µM | GI50 [54]: 18.8 µM | TGI [54]: > 100 µM | GI50 [55]: 5.73 µM | TGI [55]: > 100 µM
